Data taken from PubChem BioAssay AID720578 (The Scripps Research Institute Molecular Screening Center, 2013).
Active and inactive are the calls of the source. The rule behind the calls is not given here.

molecular target: Crimean-Congo hemorrhagic fever virus L protein viral ovarian tumor (vOTU) protease domain; test: CCHFV vOTU protease inhibitor potency, dose response, biochemical, fluorescence, Pep-AMC substrate (AID 720578); conditions: recombinant CCHFV vOTU, Pep-AMC fluorescence cleavage

Row | Structure (SMILES) | IC50
1 | CC(=O)c1ccc(NC2=C(N3CCOCC3)C(=O)c3ccccc3C2=O)cc1 | inactive
2 | CN(C)c1ccc(C=c2c3cc(O)ccc3n3c2cc(-c2ccccc2)[n+]3C)cc1 | inactive
3 | O=C(N/N=C1\C/C(=N\NC(=O)c2ccncc2)c2ccccc21)c1ccncc1 | 0.701 µM
4 | O=C1C(N2CCOCC2)=C(n2nnc3ccccc32)C(=O)c2ccccc21 | 2.69 µM
5 | CC(=O)N(C1=C(Cl)C(=O)c2ccccc2C1=O)C1CCCCC1 | 3.54 µM
6 | CC1COCC(C)N1C1=C(Cl)C(=O)c2ccccc2C1=O (configuration not stated) | 5.07 µM
7 | CCCNC1=C(N(C(C)=O)c2cccc(F)c2)C(=O)c2ccccc2C1=O | inactive
8 | Cc1c(C=O)c(Cl)n(C)c(=O)c1C#N | inactive
9 | O=C1C=C(N2CC2)c2ccccc2C1=O | 2.73 µM
10 | CCOC(=O)c1c2c(n(Cc3ccccc3)c1C)C(=O)C(=O)c1ccccc1-2 | 2.16 µM
11 | NC1=C(Br)C(=O)c2ncccc2C1=O | 0.435 µM
12 | Cc1cc2c(cc1C)C(=O)C(Br)=C(N)C2=O | 5.56 µM
13 | CC1OC(CC(=O)O)CC2=C1C(=O)c1c(O)cccc1C2=O (configuration not stated) | 3.82 µM
14 | Nc1cc2c(cc1Br)[nH]c(=O)c1ccccc12 | 3.2 µM
15 | Cc1ccccc1NC1=C/C(=N\S(=O)(=O)c2cccs2)c2ccccc2C1=O | 0.249 µM
16 | O=C1C=C(N2CCCCC2)c2ccccc2C1=O | 7.75 µM
17 | COc1ccc(-n2c3nc4ccccc4nc3c3c(=N)oc(C)nc32)cc1 | inactive
18 | CC1(OC(=O)C2CCCC2)C(=O)C=C2C=C(c3ccsc3)N(CCCCO)C=C2C1=O (configuration not stated) | inactive
19 | COc1cc(C(=O)c2nccc3cc(OC)c(OC)cc23)c([N+](=O)[O-])cc1OC | 1.05 µM

Row | Structure (SMILES) | IC50
20 | Nc1ccc(N2CCCCC2)c2nonc12 | inactive
21 | O=[N+]([O-])c1cc(O)c2ncccc2c1 | inactive
22 | CCOc1ccc2noc3c2c1C(=O)c1ccccc1-3 | inactive
23 | O=C1C(=O)c2cccnc2-c2ncccc21 | 5.38 µM
24 | C[n+]1cccc2cccc([O-])c21 | 6.41 µM
25 | O=C(COC(=O)c1ccc([N+](=O)[O-])s1)Nc1ccc(F)cc1 | 7.79 µM
26 | CCc1ccc(S(=O)(=O)Nc2cc(SCC(=O)O)c(O)c3ccccc23)cc1 | 7.64 µM
27 | O=C1NC(c2ccc(-c3ccccc3[N+](=O)[O-])o2)C(C(=O)c2ccc(Cl)cc2)C(O)(C(F)(F)F)N1 (configuration not stated) | inactive
28 | O=C1C(Cl)=C(NCCCO)C(=O)c2ccccc21 | inactive
29 | NC(=S)N=Nc1c(O)cc(O)c2[nH]c(=O)ccc12 | 9.78 µM
30 | O=C1OC(Nc2cc(Br)cc3cccnc23)c2ccccc21 (configuration not stated) | 5.23 µM
31 | Cc1ccc(N2C(=O)[C@@H]3[C@H](C2=O)C2c4ccccc4C=CN2[C@@H]3C(=O)c2ccco2)cc1 (some centres not stated) | 4.21 µM
32 | COc1ccc(/C=N/NC(=O)c2nn(-c3ccc(Cl)cc3)c(=O)c3c(N)scc23)cc1 | inactive
33 | Cn1c(=O)c2c(-c3ccccc3)n(-c3ccc(N)cc3)cc2n(C)c1=O | 4.53 µM
34 | S=C(Nc1ccc(Cl)cc1)Nc1cccc2cnccc12 | 6.44 µM
35 | NC1=CC(=O)C(=O)c2cccnc21 | 1.85 µM
36 | O=C1Nc2ccc([N+](=O)[O-])cc2C1=Nc1cccc(CO)c1 | 8.78 µM
37 | C[n+]1c(-c2ccccc2)cc2c(=Cc3ccccc3)c3ccccc3n21 | 4.95 µM
38 | O=C(NC(=S)Nc1ccccc1N1CCCC1)c1cccs1 | inactive

Row | Structure (SMILES) | IC50
39 | COc1ccccc1N=Nc1c(O)[nH]c(=S)[nH]c1=O | inactive
40 | CCC(C)n1c(NC(=O)c2ccccc2)c(C#N)c2nc3ccccc3nc21 (configuration not stated) | 8.97 µM
41 | CC1=C(SCc2ccccc2)C(=O)c2ccccc2C1=O | 2.51 µM
42 | Cc1c(Cl)cnc(NC(=O)COC(=O)c2ccc([N+](=O)[O-])s2)c1Cl | 7.08 µM
43 | Cc1oc2c(c1C(=O)O)C(=O)c1ccccc1C2=O | 9.12 µM
44 | O=C(OCc1nnc(-c2ccccc2)o1)c1ccc([N+](=O)[O-])s1 | 7.52 µM
45 | COc1cc(NCCCC(C)N)c2ncccc2c1 (configuration not stated) | 2.52 µM
46 | O=S(=O)(Nc1c(S(=O)(=O)c2ccccc2)c2nc3ccccc3nc2n1C1CCCCC1)c1ccccc1 | > 115 µM (inactive)
47 | Oc1c(C=Nc2cccc3nsnc23)ccc2ccccc12 | inactive
48 | CCOC(=O)c1cc2c(ccn2C)n1Cc1ccccc1C | > 115 µM (inactive)
49 | N#CC1=C(S)N(c2ccccc2)C(c2ccc(-c3ccc(Cl)c(Cl)c3)o2)NC1=O (configuration not stated) | inactive
50 | Cc1ccc(NC2=C(N3CCOCC3)C(=O)c3ccccc3C2=O)cc1 | 4.31 µM
51 | O=C1Cc2ccccc2C(=O)N1 | 0.396 µM
52 | O=C(NC1=CC(=O)c2ccccc2C1=O)c1ccccc1 | 3.85 µM
53 | CCOC(=O)C1=C(COC(=O)c2ccc([N+](=O)[O-])s2)NC(=O)NC1C (configuration not stated) | 7.84 µM
54 | O=C(O)CSc1cc(NS(=O)(=O)c2ccc(Br)cc2)c2ccccc2c1O | 4.45 µM
55 | C=CCN1C=CC(=C/C=C(/C#N)C(=O)OCC)C=C1 | inactive
56 | CCOC(=O)N=Nc1c2ccccc2c2nc3no[nH]c3nc12 | 2.35 µM
57 | COCCN1C=C2C(=O)C(C)(OC(=O)C3CCCC3)C(=O)C(c3ccccc3)=C2C=C1CCCC(=O)OC (configuration not stated) | inactive
